Results taken from US8193175B2, “Ruthenium complexes for treating cancers” (Universite de Strasbourg, priority 2004, dated 2012).

Columns and labels:
HCT116 cells = assay: Western blot of p53, p21 and phospho-histone H3 in HCT116 cells; format: cell-based, human; conditions: 10 μM
Protocol: FIG. 5: Detection of p53, p21 and of the phosphorylation of histone H3 in the HCT116 cells treated with CDR. The HCT116 cells were treated with the various compounds (10 μM) and for the periods of time indicated (24 hrs or 6 hrs). The proteins were extracted with a lysis buffer and were separated on 10% SDS-Page gel. After being transferred onto nitrocellulose, the p53, p21 proteins and histone H3 were detected by Western blot using anti-p53 (pAb1801), anti-p21 (1/200, Oncogene) antibody and anti-phospho serine 10 of histone H3 (1/2000, Santacruz).
(§1) For the purpose of determining the molecular mechanisms used by the ruthenium derivatives and comparing them with those induced by cisplatinum, the expression of p53, p73 p21 and bax in the A172 and HCT116 lines was analysed.

A172 glioblastoma cells = assay: Nucleus morphology and caspase 3 activation in A172 cells; format: cell-based, human
Source text: FIG. 2: A—The A172 cells were cultivated on glass slides. […] The cells were then fixed in 4% paraformaldehyde, permeabilised with 0.1% NP40 and marked with Hoechst dye (blue) and the anti-p20 antibody (active fragment of caspase 3, in red). The cells were then observed under the fluorescence microscope. B—Graphic representation of the number of cells with an apoptotic, fragmented or condensed nucleus. The bars are an average of two slides from one experiment representative of 3 carried out. C—In parallel, proteic extracts were prepared from cells treated with various drugs (cisplatinum 15 μM; CDR225 μM; CDR615 μM; CDR915 μM) and following denaturation the extracts were deposited on a !0% SDS-Page gel. After migration, the proteins were transferred onto nitrocellulose (Biorad, 0.2 μm) and the p20 fragment of the caspase 3 was detected by Western blot with an anti-p20 antibody (1/1000, R&D System).
(§2) The first step towards characterising the anticancerous effects of the compounds derived from ruthenium consists of testing their activity on tumoral lines kept in culture and comparing these effects on lines which have different characteristics as regards resistance to the anticancer treatments. Two lines of human glioblastomas (A172, HS683) and two lines of neuroblastomas (N2A and SH5Y) were used in order to test the cytostatic effects of the compounds according to the invention. Cisplatinum was chosen as the cytotoxic comparison agent. In a first approach, an MTT test was used to measure the activity of a mitochondrial enzyme, and this gives an estimate of the number of cells. Then, the cytotoxic effects of the compounds according to the invention were characterised in greater detail by analysing the morphology of the nucleus and the activation of caspase 3—two markers of cell apoptosis.

A172 cells [1] = assay: Western blot of p53, p73, p21 and Bax in A172 cells; format: cell-based, human
Protocol: FIG. 3: Detection of p53 and p73 in A172 cells treated with CDR. The A172 cells were treated with the concentrations indicated (2, 5 or 10 μM) with the various compounds and for the periods of time indicated (24 hrs or 6 hrs). The proteins were extracted with a lysis buffer and were separated on 10% SDS-Page gel. After being transferred onto nitrocellulose, the p53 and p73 proteins were detected by Western blot using anti-p53 (pAb1801) and anti-p73 (1/200, Ab2, Oncogene) antibody.
FIG. 4: Detection of p21 and Bax in A172 cells treated with CDR. The A172 cells were treated with the various compounds (10 μM) for 24 hrs. The proteins were extracted with a lysis buffer and were separated on 10% SDS-Page gel. After being transferred onto nitrocellulose, the p21 and Bax proteins were detected by Western blot using anti-p21 (1/200, Oncogene) and anti-Bax (1/2000, Santacruz) antibody.
as §1

[2] = tested on: A172, HS683, N2A, and SH5Y; assay: MTT test on glioblastoma and neuroblastoma lines; format: cell-based, human; conditions: 48 hrs treatment; compared with cisplatinum
Protocol: FIG. 1: The A172 cells were cultivated on plates with 96 wells in DMEM medium with 10% calf serum. At 30% confluence, the cells were treated for 48 hrs with cisplatinum or the various compounds derived from ruthenium in the concentrations indicated (1, 5, 15, 50 μM). The quantity of cells present in the wells was evaluated by an MTT (MTT, Sigma) test of which the products of the reaction are quantified with an Elisa plate reader (Metertech, USA) (490-650 nm). The results obtained were related to the values of the control condition (100% viability). The graphs show an average of 8 points with the typical spacings over one experiment representative of 4 carried out. The thick black line indicates the IC50 for each graph.
TABLE 2: a summary of the results obtained on various cell lines and primary glial cultures. The experiments were carried out under the same conditions as those described for the A172 cells. Each IC50 is an indicative value obtained over 4 independent experiments.
as §2

A172 cells [3] = assay: MTT test on A172 cells, combination with NCS or Taxol; format: cell-based, human; conditions: concentration bringing about 10% of the maximum effect; 48 hrs
Protocol: FIG. 7: The A172 cells were cultivated in plates with 96 wells in DMEM medium with 10% calf serum. At 30% confluence, the cells were treated for 48 hrs with cisplatinum, CDR6, NCS (Neocarzinostatin), Taxol or a combination of these drugs in the concentrations indicated. The quantity of cells present in the wells was evaluated by an MTT (MTT, Sigma) test, the reaction products of which are quantified with an Elisa plate reader (Metertech, USA) (490-650 nm). […] The graphs show an average of 8 points with the typical spacings over one experiment representative of 4 carried out. The thick black line indicates the IC50 for each graph.
The mechanisms induced by various anticancer drugs are different according to the mode of action of these drugs. […] NCS induces DNA double strand breaks, similar to those of gamma rays (Smith and Nicolaou 1996). Taxol disrupts the mitotic spindles (Oberlies and Kroll 2004).
A comparison was made using two doses of NCS and two doses of Taxol. The one enables one to expect the IC50, the other leads to a reduction by 10% of the cell viability after 48 hrs treatment. These two concentrations were combined with a concentration of ruthenium derivative or cisplatinum bringing about 10% of the maximum effect.

[4] = tested on: 2008/CMV and 2008/ATP7B cells; assay: MTT test on 2008/CMV and 2008/ATP7B cells; format: cell-based; conditions: 48 hrs
Protocol: FIG. 6: The 2008/CMV and 2008/ATP7B cells (contributed by Dr. Howell) were cultivated in plates with 96 wells in DMEM medium with 10% calf serum. At 30% confluence, the cells were treated for 48 hrs with cisplatinum or the various compounds derived from ruthenium in the concentrations indicated (1, 5, 15, 50 μM). The quantity of cells present in the wells was evaluated by an MTT (MTT, Sigma) test. The results obtained were related to the values of the control condition (100% viability). The graphs show an average of 8 points with the typical spacings over one experiment representative of 3 carried out. The thick black line indicates the IC50 for each graph.
One of these mechanisms is the overexpression of the copper export pump (ATP7B) which expels cisplatinum from the cell. It has been shown that this molecule is overexpressed in human tumours and that cell lines which overexpress this molecule are more resistant to cisplatinum and carboplatinum than control lines.
Two cell lines derived from 2008 cells (Katano, Safaei et al. 2003) were studied. One overexpresses the ATP7B pump, and the other only contains the control vector. The cytostatic activity of the cisplatinum and the CDR was tested in these two lines using the MTT test.

Structure (SMILES): CN(C)Cc1cccc[c]1[Ru+].CP(C)c1ccccc1.F[P-](F)(F)(F)(F)F.c1ccccc1 [Compound 6, [Ru (η^6-C6H6)-2-(CH2NMe2)—C6H4—(PMe2Ph)]PF6]
- increase in expression of p21 and inhibition of phosphorylation of histone H3 (HCT116 cells): identical for CDR 6 and cisplatinum
- induction of p53 (HCT116 cells; 6 hrs to 24 hrs): induction of p53
- nuclear condensation and fragmentation (A172 glioblastoma cells; 48 hrs treatment): induce nuclear condensation and fragmentation characteristic of apoptosis
- proteic levels of the active fragment of caspase 3 (Western blot) (A172 glioblastoma cells; cisplatinum 15 μM, CDR6 15 μM, CDR9 15 μM): increasing the proteic levels of the active fragment of caspase 3
- expression of p21 and Bax (A172 cells [1]; 10 μM, 24 hours treatment): induces the expression of p21 and Bax
- p53 proteic levels (A172 cells [1]; 6 hrs treatment): induce p53
- p53 proteic levels (A172 cells [1]; 24 hrs treatment): no effect
- reduction of the number of tumoral cells (MTT) [2]: at a concentration similar to or lower than that of cisplatinum
- effectiveness of co-treatment with NCS or Taxol (A172 cells [3]): significantly more effective in relation to a co-treatment with cisplatinum
- sensitivity of the line expressing ATP7B relative to the control line (MTT) [4]: equivalent to that of the control line
